Test results reported in patent US4698352A, “4-oxo-1,4-dihydronicotinic acid derivatives, salts thereof, and antibacterial agents containing the same” (Toyama Chemical Co., Ltd., priority 1982, dated 1987).
Values after ≈ are worked out from the molar mass of the structure shown. Read-outs that look alike come from different tables or passages of the source.

How the values were obtained:
Assay in all cases: Antibacterial activity (MIC), agar dilution
Format in all cases: cell-based
Pro. vulgaris GN76** = conditions: Proteus vulgaris, 20 h; Pro. vulgaris GN76, cephalospolinase-producing; 10^6 cells per ml; read-out: MIC
Excerpt: (§1) The amount of bacteria inoculated was 10^4 cells per plate (10^6 cells per ml).
(§2) ** Cephalospolinase-producing bacteria

E. coli GN5482** = conditions: Escherichia coli, 20 h; E. coli GN5482, cephalospolinase-producing; 10^6 cells per ml; read-out: MIC
Excerpt: as §1, §2

Ps. aeruginosa GN918** = conditions: Pseudomonas aeruginosa, Ps. aeruginosa GN918, cephalospolinase-producing, 10^6 cells per ml
Excerpt: as §1, §2

Ps. aeruginosa GN3379* = conditions: Pseudomonas aeruginosa, 20 h; Ps. aeruginosa GN3379, penicillinase-producing; 10^6 cells per ml; read-out: MIC
Excerpt: as §1
(§3) * Penicillinase-producing bacteria

Kl. pneumoniae Y-4* = conditions: Klebsiella pneumoniae, 20 h, Kl. pneumoniae Y-4, penicillinase-producing; 10^6 cells per ml; read-out: MIC
Excerpt: as §1, §3

St. aureus F-137* = conditions: Staphylococcus aureus, 20 h, St. aureus F-137, penicillinase-producing; 10^6 cells per ml; read-out: MIC
Excerpt: as §1, §3

E. coli TK-3* = conditions: Escherichia coli, 20 h, E. coli TK-3, penicillinase-producing; 10^6 cells per ml; read-out: MIC
Excerpt: as §1, §3

Pro. vulgaris GN3027 = conditions: Proteus vulgaris, GN3027, 20 h, Pro. vulgaris GN3027; 10^6 cells per ml; 37° C., 20 hours; read-out: MIC
Excerpt: as §1

Ps. aeruginosa S-68 = conditions: Pseudomonas aeruginosa
Excerpt: as §1

E. coli NIHJ JC-2 = conditions: Escherichia coli, NIHJJC2, 20 h, E. coli NIHJ JC-2; 10^6 cells per ml; 37° C., 20 hours; read-out: MIC
Excerpt: as §1

E. coli TK-111 = conditions: Escherichia coli, TK111, 20 h, E. coli TK-111; 10^6 cells per ml; 37° C., 20 hours; read-out: MIC
Excerpt: as §1

St. aureus FDA209P = conditions: Staphylococcus aureus, FDA209P, 20 h, St. aureus FDA209P; 10^6 cells per ml; 37° C., 20 hours; read-out: MIC
Excerpt: as §1

Pro. mirabilis T-111 = conditions: Proteus mirabilis, 37° C.
Excerpt: as §1

Aci. antitratus A-6 = conditions: 20 h, Aci. antitratus A-6; 10^6 cells per ml; 37° C., 20 hours; read-out: MIC
Excerpt: as §1

Kl. pneumoniae Y-41 = conditions: Klebsiella pneumoniae, Y41, 10^6 cells per ml, 37° C., 20 hours, read-out: MIC
Excerpt: as §1

Ent. cloacae IID977 = conditions: Enterobacter cloacae, IID977, 20 h, Ent. cloacae IID977; 10^6 cells per ml; 37° C., 20 hours; read-out: MIC
Excerpt: as §1

Kl. pneumoniae Y-50 = conditions: Klebsiella pneumoniae, Y50, 20 h, 10^6 cells per ml, 37° C., read-out: MIC
Excerpt: as §1

Ps. aeruginosa IFO3445 = conditions: Pseudomonas aeruginosa
Excerpt: as §1

Pro. morganii T-216 = conditions: Morganella morganii, 37° C.
Excerpt: as §1

[1] = T111, 10^6 cells per ml, 20 hours, read-out: MIC
[2] = T216, 10^6 cells per ml, 20 hours, read-out: MIC
[3] = S68, Ps. aeruginosa S-68, 10^6 cells per ml, 37° C., 20 hours, read-out: MIC
[4] = Ps. aeruginosa IFO3445, 10^6 cells per ml, 37° C., 20 hours, read-out: MIC

SMILES: CC(=O)Oc1ccc(-n2cc(C(=O)O)c(=O)cc2-c2ccc(-c3cccs3)cc2)cc1
- MIC (Pro. vulgaris GN76**): 0.39 µg/mL (≈ 0.904 µM)
- MIC (E. coli GN5482**): ≤ 0.05 µg/mL
- MIC (Ps. aeruginosa GN918**; GN918, 20 h): 1.56 µg/mL (≈ 3.62 µM)
- MIC (Ps. aeruginosa GN3379*): 3.13 µg/mL (≈ 7.25 µM)
- MIC (Kl. pneumoniae Y-4*): 1.56 µg/mL (≈ 3.62 µM)
- MIC (St. aureus F-137*): ≤ 0.05 µg/mL
- MIC (E. coli TK-3*): 0.39 µg/mL (≈ 0.904 µM)
- MIC (Pro. vulgaris GN3027): ≤ 0.05 µg/mL
- MIC (Ps. aeruginosa S-68; S68, 20 h): 1.56 µg/mL (≈ 3.62 µM)
- MIC (E. coli NIHJ JC-2): 0.2 µg/mL (≈ 0.464 µM)
- MIC (E. coli TK-111): ≤ 0.05 µg/mL
- MIC (St. aureus FDA209P): ≤ 0.05 µg/mL
- MIC (Pro. mirabilis T-111; [1]): 0.39 µg/mL (≈ 0.904 µM)
- MIC (Aci. antitratus A-6): ≤ 0.05 µg/mL
- MIC (Kl. pneumoniae Y-41): 0.78 µg/mL (≈ 1.81 µM)
- MIC (Ent. cloacae IID977): 0.39 µg/mL (≈ 0.904 µM)
- MIC (Kl. pneumoniae Y-50): 0.39 µg/mL (≈ 0.904 µM)
- MIC (Ps. aeruginosa IFO3445; IFO3445, 20 h): 1.56 µg/mL (≈ 3.62 µM)
- MIC (Pro. morganii T-216; [2]): 0.39 µg/mL (≈ 0.904 µM)

SMILES: CC(=O)Oc1ccc(-n2cc(C(=O)O)c(=O)cc2-c2ccc(N(C)C)cc2)c(C)c1
- MIC (Pro. vulgaris GN76**): 0.39 µg/mL (≈ 0.96 µM)
- MIC (E. coli GN5482**): ≤ 0.05 µg/mL
- MIC (Ps. aeruginosa GN918**; GN918, 20 h): 1.56 µg/mL (≈ 3.84 µM)
- MIC (Ps. aeruginosa GN3379*): 6.25 µg/mL (≈ 15.4 µM)
- MIC (Kl. pneumoniae Y-4*): 1.56 µg/mL (≈ 3.84 µM)
- MIC (St. aureus F-137*): ≤ 0.05 µg/mL
- MIC (E. coli TK-3*): 0.39 µg/mL (≈ 0.96 µM)
- MIC (Pro. vulgaris GN3027): 0.39 µg/mL (≈ 0.96 µM)
- MIC (Ps. aeruginosa S-68; [3]): 3.13 µg/mL (≈ 7.7 µM)
- MIC (E. coli NIHJ JC-2): 0.2 µg/mL (≈ 0.492 µM)
- MIC (E. coli TK-111): ≤ 0.05 µg/mL
- MIC (St. aureus FDA209P): ≤ 0.05 µg/mL
- MIC (Pro. mirabilis T-111; [1]): 0.78 µg/mL (≈ 1.92 µM)
- MIC (Aci. antitratus A-6): ≤ 0.05 µg/mL
- MIC (Kl. pneumoniae Y-41): 1.56 µg/mL (≈ 3.84 µM)
- MIC (Ent. cloacae IID977): 0.78 µg/mL (≈ 1.92 µM)
- MIC (Kl. pneumoniae Y-50): 0.39 µg/mL (≈ 0.96 µM)
- MIC (Ps. aeruginosa IFO3445; [4]): 6.25 µg/mL (≈ 15.4 µM)
- MIC (Pro. morganii T-216; T216, 20 h, 10^6 cells per ml): 1.56 µg/mL (≈ 3.84 µM)

SMILES: O=C(O)c1cn(-c2ccc(O)cc2)c(-c2ccc(-c3ccc(Cl)s3)cc2)cc1=O
- MIC (Pro. vulgaris GN76**): 0.39 µg/mL (≈ 0.92 µM)
- MIC (E. coli GN5482**): ≤ 0.05 µg/mL
- MIC (Ps. aeruginosa GN918**; 20 h, read-out: MIC): 0.78 µg/mL (≈ 1.84 µM)
- MIC (Ps. aeruginosa GN3379*): 3.13 µg/mL (≈ 7.38 µM)
- MIC (Kl. pneumoniae Y-4*): 1.56 µg/mL (≈ 3.68 µM)
- MIC (St. aureus F-137*): ≤ 0.05 µg/mL
- MIC (E. coli TK-3*): 0.78 µg/mL (≈ 1.84 µM)
- MIC (Pro. vulgaris GN3027): ≤ 0.1 µg/mL
- MIC (Ps. aeruginosa S-68; [3]): 3.13 µg/mL (≈ 7.38 µM)
- MIC (E. coli NIHJ JC-2): 0.2 µg/mL (≈ 0.472 µM)
- MIC (E. coli TK-111): 0.1 µg/mL (≈ 0.236 µM)
- MIC (St. aureus FDA209P): ≤ 0.05 µg/mL
- MIC (Pro. mirabilis T-111; T111, 20 h, 10^6 cells per ml): 1.56 µg/mL (≈ 3.68 µM)
- MIC (Aci. antitratus A-6): 0.1 µg/mL (≈ 0.236 µM)
- MIC (Kl. pneumoniae Y-41): 1.56 µg/mL (≈ 3.68 µM)
- MIC (Ent. cloacae IID977): 0.78 µg/mL (≈ 1.84 µM)
- MIC (Kl. pneumoniae Y-50): 0.39 µg/mL (≈ 0.92 µM)
- MIC (Ps. aeruginosa IFO3445; [4]): 3.13 µg/mL (≈ 7.38 µM)
- MIC (Pro. morganii T-216; [2]): 0.78 µg/mL (≈ 1.84 µM)

SMILES: COc1ccc(-c2ccc(-c3cc(=O)c(C(=O)O)cn3-c3ccc(O)cc3)cc2)s1
- MIC (Pro. vulgaris GN76**): 0.39 µg/mL (≈ 0.93 µM)
- MIC (E. coli GN5482**): ≤ 0.05 µg/mL
- MIC (Ps. aeruginosa GN918**; 20 h, read-out: MIC): 0.78 µg/mL (≈ 1.86 µM)
- MIC (Ps. aeruginosa GN3379*): 3.13 µg/mL (≈ 7.46 µM)
- MIC (Kl. pneumoniae Y-4*): 1.56 µg/mL (≈ 3.72 µM)
- MIC (St. aureus F-137*): ≤ 0.05 µg/mL
- MIC (E. coli TK-3*): 0.39 µg/mL (≈ 0.93 µM)
- MIC (Pro. vulgaris GN3027): 0.2 µg/mL (≈ 0.477 µM)
- MIC (Ps. aeruginosa S-68; [3]): 3.13 µg/mL (≈ 7.46 µM)
- MIC (E. coli NIHJ JC-2): 0.39 µg/mL (≈ 0.93 µM)
- MIC (E. coli TK-111): 0.1 µg/mL (≈ 0.238 µM)
- MIC (St. aureus FDA209P): ≤ 0.05 µg/mL
- MIC (Pro. mirabilis T-111; [1]): 0.78 µg/mL (≈ 1.86 µM)
- MIC (Aci. antitratus A-6): 0.1 µg/mL (≈ 0.238 µM)
- MIC (Kl. pneumoniae Y-41): 1.56 µg/mL (≈ 3.72 µM)
- MIC (Ent. cloacae IID977): 0.78 µg/mL (≈ 1.86 µM)
- MIC (Kl. pneumoniae Y-50): 0.78 µg/mL (≈ 1.86 µM)
- MIC (Ps. aeruginosa IFO3445; [4]): 6.25 µg/mL (≈ 14.9 µM)
- MIC (Pro. morganii T-216; [2]): 0.39 µg/mL (≈ 0.93 µM)

SMILES: Cc1ccc(-c2ccc(-c3cc(=O)c(C(=O)O)cn3-c3ccc(O)cc3)cc2)s1
- MIC (Pro. vulgaris GN76**): 0.39 µg/mL (≈ 0.967 µM)
- MIC (E. coli GN5482**): ≤ 0.05 µg/mL
- MIC (Ps. aeruginosa GN918**; GN918, 20 h): 1.56 µg/mL (≈ 3.87 µM)
- MIC (Ps. aeruginosa GN3379*): 6.25 µg/mL (≈ 15.5 µM)
- MIC (Kl. pneumoniae Y-4*): 1.56 µg/mL (≈ 3.87 µM)
- MIC (St. aureus F-137*): ≤ 0.05 µg/mL
- MIC (E. coli TK-3*): 0.39 µg/mL (≈ 0.967 µM)
- MIC (Pro. vulgaris GN3027): 0.1 µg/mL (≈ 0.248 µM)
- MIC (Ps. aeruginosa S-68; [3]): 3.13 µg/mL (≈ 7.76 µM)
- MIC (E. coli NIHJ JC-2): 0.2 µg/mL (≈ 0.496 µM)
- MIC (E. coli TK-111): 0.1 µg/mL (≈ 0.248 µM)
- MIC (St. aureus FDA209P): ≤ 0.05 µg/mL
- MIC (Pro. mirabilis T-111; [1]): 0.39 µg/mL (≈ 0.967 µM)
- MIC (Aci. antitratus A-6): ≤ 0.05 µg/mL
- MIC (Kl. pneumoniae Y-41): 1.56 µg/mL (≈ 3.87 µM)
- MIC (Ent. cloacae IID977): 0.78 µg/mL (≈ 1.93 µM)
- MIC (Kl. pneumoniae Y-50): 0.78 µg/mL (≈ 1.93 µM)
- MIC (Ps. aeruginosa IFO3445; [4]): 6.25 µg/mL (≈ 15.5 µM)
- MIC (Pro. morganii T-216; [2]): 0.78 µg/mL (≈ 1.93 µM)

SMILES: Cn1ccc2cc(-c3cc(=O)c(C(=O)O)cn3-c3ccc(O)cc3)ccc21
- MIC (Pro. vulgaris GN76**): 0.39 µg/mL (≈ 1.08 µM)
- MIC (E. coli GN5482**): ≤ 0.05 µg/mL
- MIC (Ps. aeruginosa GN918**; 20 h, read-out: MIC): 0.78 µg/mL (≈ 2.16 µM)
- MIC (Ps. aeruginosa GN3379*): 3.13 µg/mL (≈ 8.69 µM)
- MIC (Kl. pneumoniae Y-4*): 0.78 µg/mL (≈ 2.16 µM)
- MIC (St. aureus F-137*): ≤ 0.05 µg/mL
- MIC (E. coli TK-3*): 0.39 µg/mL (≈ 1.08 µM)
- MIC (Pro. vulgaris GN3027): 0.1 µg/mL (≈ 0.277 µM)
- MIC (Ps. aeruginosa S-68; [3]): 3.13 µg/mL (≈ 8.69 µM)
- MIC (E. coli NIHJ JC-2): 0.1 µg/mL (≈ 0.277 µM)
- MIC (E. coli TK-111): ≤ 0.05 µg/mL
- MIC (St. aureus FDA209P): ≤ 0.05 µg/mL
- MIC (Pro. mirabilis T-111; [1]): 0.78 µg/mL (≈ 2.16 µM)
- MIC (Aci. antitratus A-6): 0.1 µg/mL (≈ 0.277 µM)
- MIC (Kl. pneumoniae Y-41): 0.78 µg/mL (≈ 2.16 µM)
- MIC (Ent. cloacae IID977): 0.39 µg/mL (≈ 1.08 µM)
- MIC (Kl. pneumoniae Y-50): 0.2 µg/mL (≈ 0.555 µM)
- MIC (Ps. aeruginosa IFO3445; [4]): 3.13 µg/mL (≈ 8.69 µM)
- MIC (Pro. morganii T-216; [2]): 0.39 µg/mL (≈ 1.08 µM)
